Measured values reported in patent publication US20240383904A1, “HETEROCYCLIC COMPOUNDS” (Hoffmann-La Roche Inc., priority 2021, published 2024).

Biological target: T1, MAGL (Homo sapiens, UniProt Q99685)
T1 sequence (Q99685 1-303): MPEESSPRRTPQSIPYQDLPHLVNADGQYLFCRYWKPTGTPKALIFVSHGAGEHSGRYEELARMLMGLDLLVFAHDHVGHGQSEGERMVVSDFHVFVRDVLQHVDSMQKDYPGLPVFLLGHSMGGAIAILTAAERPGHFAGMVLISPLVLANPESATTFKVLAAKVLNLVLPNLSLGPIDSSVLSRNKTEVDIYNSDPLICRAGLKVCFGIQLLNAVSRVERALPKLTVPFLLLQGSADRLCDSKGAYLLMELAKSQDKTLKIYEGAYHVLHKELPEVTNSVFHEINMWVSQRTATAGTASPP
Assay: 2-AG assay: MAGL inhibitory activity by hydrolysis of 2-arachidonoylglycerol to arachidonic acid, followed by mass spectrometry
Assay type: biochemical
Settings: 15 min preincubation, 30 min reaction at RT, 8 μM 2-arachidonoylglycerol

Row | Structure (SMILES) | IC50 [nM]
1 | O=C1CCC2(CN(C(=O)N3CC4(CCN(Cc5cccc(S(=O)(=O)C(F)(F)F)c5)C4)C3)C2)N1 [Example 256, 2-[7-[[3-(trifluoromethylsulfonyl)phenyl]methyl]-2,7-diazaspiro[3.4]octane-2-carbonyl]-2,5-diazaspiro[3.4]octan-6-one] | 26.9
2 | O=C1NC2(CO1)CN(C(=O)N1CC3(C1)CN(c1ccc(C(F)(F)F)cn1)C3)C2 [Example 202, 2-[6-[5-(trifluoromethyl)-2-pyridyl]-2,6-diazaspiro[3.3]heptane-2-carbonyl]-7-oxa-2,5-diazaspiro[3.4]octan-6-one] | 61.4
3 | CS(=O)(=O)c1ccc(CC2CC3(C2)CN(C(=O)N2CC4(CCC(=O)N4)C2)C3)cc1 [Example 8, 2-[6-(4-mesylbenzyl)-2-azaspiro[3.3]heptane-2-carbonyl]-2,5-diazaspiro[3.4]octan-6-one] | 15.1
4 | CS(=O)(=O)c1ccc(CC2CC3(C2)CN(C(=O)N2CC4(COCC(=O)N4)C2)C3)cc1C(F)(F)F [Example 181, 2-[6-[[4-methylsulfonyl-3-(trifluoromethyl)phenyl]methyl]-2-azaspiro[3.3]heptane-2-carbonyl]-8-oxa-2,5-diazaspiro[3.5]nonan-6-one] | 1.45
5 | O=C1COCC2(CN(C(=O)N3CC4(CC(Cc5ccc(F)cc5C(F)(F)F)C4)C3)C2)N1 [Example 143] | 0.07
6 | O=C1CCC2(CN(C(=O)N3CC4(CC(Oc5ccc(Cl)cn5)C4)C3)C2)N1 [Example 303, 2-[6-[(5-chloro-2-pyridyl)oxy]-2-azaspiro[3.3]heptane-2-carbonyl]-2,5-diazaspiro[3.4]octan-6-one] | 35.7
7 | CS(=O)(=O)c1cc(C(F)(F)F)ccc1CC1CC2(C1)CN(C(=O)N1CC3(CCCC(=O)N3)C1)C2 [Example 185, 2-[6-[[2-methylsulfonyl-4-(trifluoromethyl)phenyl]methyl]-2-azaspiro[3.3]heptane-2-carbonyl]-2,5-diazaspiro[3.5]nonan-6-one] | 34.5
8 | O=C1NC2(CO1)CN(C(=O)N1CC3(CCC(Nc4cnc(C(F)(F)F)cn4)CC3)C1)C2 [Example 98, 2-[7-[[5-(trifluoromethyl)pyrazin-2-yl]amino]-2-azaspiro[3.5]nonane-2-carbonyl]-7-oxa-2,5-diazaspiro[3.4]octan-6-one] | 1.75
9 | N#Cc1ccc(CC2CC3(C2)CN(C(=O)N2CC4(CCC(=O)N4)C2)C3)c(F)c1 [Example 251, 3-fluoro-4-[[2-(6-oxo-2,5-diazaspiro[3.4]octane-2-carbonyl)-2-azaspiro[3.3]heptan-6-yl]methyl]benzonitrile] | 0.6
10 | O=C1CCC2(CN(C(=O)N3CC4(CC(Cn5ncc(C(F)(F)F)n5)C4)C3)C2)N1 [Example 300, 2-[6-[[4-(trifluoromethyl)triazol-2-yl]methyl]-2-azaspiro[3.3]heptane-2-carbonyl]-2,5-diazaspiro[3.4]octan-6-one] | 47.4
11 | O=C1COCC2(CN(C(=O)N3CC4(CCN(Cc5ccc(C(F)(F)F)nc5)C4)C3)C2)N1 [Example 240, 2-[7-[[6-(trifluoromethyl)-3-pyridyl]methyl]-2,7-diazaspiro[3.4]octane-2-carbonyl]-8-oxa-2,5-diazaspiro[3.5]nonan-6-one] | 1240
12 | N=S(=O)(c1cc(F)cc(CC2CC3(C2)CN(C(=O)N2CC4(COCC(=O)N4)C2)C3)c1)C(F)(F)F (centres unmarked) [Example 322, 2-[6-[[3-fluoro-5-(trifluoromethylsulfoni-midoyl)phenyl]methyl]-2-azaspiro[3.3]heptane-2-carbonyl]-8-oxa-2,5-diazaspiro[3.5]nonan-6-one] | 4.32
13 | O=C1CCC2(CN(C(=O)N3CC4(CCC(Cc5nnc(C(F)(F)F)[nH]5)CC4)C3)C2)N1 [Example 323, 2-[7-[[5-(trifluoromethyl)-4H-1,2,4-triazol-3-yl]methyl]-2-azaspiro[3.5]nonane-2-carbonyl]-2,5-diazaspiro[3.4]octan-6-one] | 0.17
14 | N=S(=O)(c1ccc(OC2CC3(C2)CN(C(=O)N2CC4(CCC(=O)N4)C2)C3)cc1)C(F)(F)F (centres unmarked) [Example 335] | 101
15 | CS(=O)(=O)c1cc(F)ccc1CC1CC2(C1)CN(C(=O)N1CC3(COC(=O)N3)C1)C2 [Example 15, 2-[6-(4-fluoro-2-mesyl-benzyl)-2-azaspiro[3.3]heptane-2-carbonyl]-7-oxa-2,5-diazaspiro[3.4]octan-6-one] | 0.3
16 | O=C1COCC2(CN(C(=O)N3CC4(CC(Cc5ccc(C(F)(F)F)cn5)C4)C3)C2)N1 [Example 170, 2-[6-[[5-(trifluoromethyl)-2-pyridyl]methyl]-2-azaspiro[3.3]heptane-2-carbonyl]-8-oxa-2,5-diazaspiro[3.5]nonan-6-one] | 7.82

Row | Structure (SMILES) | IC50 [nM]
17 | O=C1NC2(CO1)CN(C(=O)N1CC3(CC(NCC4(C(F)(F)F)CC4)C3)C1)C2 [Example 119, 2-[6-[[1-(trifluoromethyl)cyclopro-pyl]methylamino]-2-azaspiro[3.3]heptane-2-carbonyl]-7-oxa-2,5-diazaspiro[3.4]octan-6-one] | 2.93
18 | N=[S@](=O)(c1cccc(CC2CC3(C2)CN(C(=O)N2CC4(COC(=O)N4)C2)C3)c1)C(F)(F)F [Example 356, 2-[6-[3-(trifluoromethylsulfoni-midoyl)benzyl]-2-azaspiro[3.3]heptane-2-carbonyl]-7-oxa-2,5-diazaspiro[3.4]octan-6-one] | 0.2
19 | O=C1NC2(CO1)CN(C(=O)N1CC3(CCC(Cc4cnc(C(F)(F)F)cn4)CC3)C1)C2 [Example 112, 2-[7-[[5-(trifluoromethyl)pyrazin-2-yl]methyl]-2-azaspiro[3.5]nonane-2-carbonyl]-7-oxa-2,5-diazaspiro[3.4]octan-6-one] | 0.57
20 | O=C1CCC2(CN(C(=O)N3CC4(CCC(Cc5ccc(OC(F)F)nc5)CC4)C3)C2)N1 [Example 121, 2-[7-[[6-(difluoromethoxy)-3-pyridyl]methyl]-2-azaspiro[3.5]nonane-2-carbonyl]-2,5-diazaspiro[3.4]octan-6-one] | 4.19
21 | N#Cc1cc(C(F)(F)F)ncc1O[C@H]1CCC2(C1)CN(C(=O)N1CC3(COCC(=O)N3)C1)C2 [Example 214, 5-[[(6S)-2-(6-oxo-8-oxa-2,5-diazaspiro[3.5]nonane-2-carbonyl)-2-azaspiro[3.4]octan-6-yl]oxy]-2-(trifluoromethyl)pyridine-4-carbonitrile] | 386
22 | Cc1cc(C(F)F)nn1CC1CC2(C1)CN(C(=O)N1CC3(CCC(=O)N3)C1)C2 [Example 347, 2-[6-[[3-(difluoromethyl)-5-methyl-pyrazol-1-yl]methyl]-2-azaspiro[3.3]heptane-2-carbonyl]-2,5-diazaspiro[3.4]octan-6-one] | 8.19
23 | N=[S@@](=O)(c1cccc(CC2CC3(C2)CN(C(=O)N2CC4(CCCC(=O)N4)C2)C3)c1)C(F)(F)F [Example 290, 2-[6-[[3-(trifluoromethylsulfoni-midoyl)phenyl]methyl]-2-azaspiro[3.3]heptane-2-carbonyl]-2,5-diazaspiro[3.5]nonan-6-one] | 45.6
24 | O=C1NC2(CO1)CN(C(=O)N1CC3(CC(Cc4nc(C(F)(F)F)cs4)C3)C1)C2 [Example 351, 2-[6-[[4-(trifluoromethyl)thiazol-2-yl]methyl]-2-azaspiro[3.3]heptane-2-carbonyl]-7-oxa-2,5-diazaspiro[3.4]octan-6-one] | 0.37
25 | O=C1CCC2(CN(C(=O)N3CC4(CCN(Cc5cc(C(F)(F)F)[nH]n5)CC4)C3)C2)N1 [Example 350, 2-[7-[[5-(trifluoromethyl)-1H-pyrazol-3-yl]methyl]-2,7-diazaspiro[3.5]nonane-2-carbonyl]-2,5-diazaspiro[3.4]octan-6-one] | 165
26 | N=[S@@](=O)(c1cccc(CC2CC3(C2)CN(C(=O)N2CC4(COCC(=O)N4)C2)C3)c1)C(F)(F)F [Example 291, 2-[6-[[3-(trifluoromethylsulfoni-midoyl)phenyl]methyl]-2-azaspiro[3.3]heptane-2-carbonyl]-8-oxa-2,5-diazaspiro[3.5]nonan-6-one] | 1.27
27 | O=C1CCC2(CN(C(=O)N3CC4(CC(Cc5ccc(OC(F)(F)F)nc5)C4)C3)C2)N1 [Example 179, 2-[6-[[6-(trifluoromethoxy)-3-pyridyl]methyl]-2-azaspiro[3.3]heptane-2-carbonyl]-2,5-diazaspiro[3.4]octan-6-one] | 1.66
28 | O=C1NC2(CO1)CN(C(=O)N1CC3(CCN(Cc4ccc(C(F)(F)F)cn4)CC3)C1)C2 [Example 149, 2-[7-[[5-(trifluoromethyl)-2-pyridyl]methyl]-2,7-diazaspiro[3.5]nonane-2-carbonyl]-7-oxa-2,5-diazaspiro[3.4]octan-6-one] | 1.68
29 | O=C1CCC2(CN(C(=O)N3CC4(CCC(S(=O)(=O)c5cccc(C(F)(F)F)c5)CC4)C3)C2)N1 [Example 282, 2-[7-[3-(trifluoromethyl)phenyl]sulfonyl-2-azaspiro[3.5]nonane-2-carbonyl]-2,5-diazaspiro[3.4]octan-6-one] | 37.2
30 | CS(=O)(=O)c1ccc(O[C@H]2CCC3(C2)CN(C(=O)N2CC4(COC(=O)N4)C2)C3)cc1C(F)(F)F [Example 118, 2-[(6S)-6-[4-mesy1-3-(trifluoromethyl)phenoxy]-2-azaspiro[3.4]octane-2-carbonyl]-7-oxa-2,5-diazaspiro[3.4]octan-6-one] | 2.49
31 | CS(=N)(=O)c1cc(CC2CC3(C2)CN(C(=O)N2CC4(CCC(=O)N4)C2)C3)cc(C(F)(F)F)c1 (centres unmarked) [Example 255, 2-[6-[[3-(methylsulfonimidoyl)-5-(trifluoromethyl)phenyl]methyl]-2-azaspiro[3.3]heptane-2-carbonyl]-2,5-diazaspiro[3.4]octan-6-one] | 4.19
32 | O=C1CCCC2(CN(C(=O)N3CC4(CC(Cn5cc(C(F)(F)F)cn5)C4)C3)C2)N1 [Example 274, 2-[6-[[4-(trifluoromethyl)pyrazol-1-yl]methyl]-2-azaspiro[3.3]heptane-2-carbonyl]-2,5-diazaspiro[3.5]nonan-6-one] | 540
